What all share (assay type): biochemical
One test deals with T1, TG6 (Homo sapiens, UniProt O95932).
T1 construct: His6 (N); made in house; host or cells: E. coli BL21 (DE3)
T1 sequence (O95932 1-706): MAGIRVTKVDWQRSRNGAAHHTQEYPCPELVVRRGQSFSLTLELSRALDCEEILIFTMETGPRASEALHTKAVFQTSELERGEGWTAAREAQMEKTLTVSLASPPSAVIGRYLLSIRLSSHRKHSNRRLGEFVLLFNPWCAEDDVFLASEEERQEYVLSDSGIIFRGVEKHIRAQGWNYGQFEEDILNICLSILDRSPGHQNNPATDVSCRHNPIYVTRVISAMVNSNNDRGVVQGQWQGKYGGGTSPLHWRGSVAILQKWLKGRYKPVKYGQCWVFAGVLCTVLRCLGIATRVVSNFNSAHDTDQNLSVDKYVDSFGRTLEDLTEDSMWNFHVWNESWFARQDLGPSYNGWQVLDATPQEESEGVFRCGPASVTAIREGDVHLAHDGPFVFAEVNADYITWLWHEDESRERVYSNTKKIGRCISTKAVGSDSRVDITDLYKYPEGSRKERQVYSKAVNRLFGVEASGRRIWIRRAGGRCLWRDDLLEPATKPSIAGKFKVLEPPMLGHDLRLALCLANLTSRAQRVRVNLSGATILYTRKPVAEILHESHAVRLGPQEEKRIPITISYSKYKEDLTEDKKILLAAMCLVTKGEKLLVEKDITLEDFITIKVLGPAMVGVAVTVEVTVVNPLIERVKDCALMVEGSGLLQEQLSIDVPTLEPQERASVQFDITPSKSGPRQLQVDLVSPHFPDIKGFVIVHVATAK
Nature of the test: Transglutaminase inhibition, IC50 at TG6. Here is the method:
(§1) The genes encoding for TG6 and TG7 were amplified from TG6-cDNA and TG7-cDNA, respectively, with PCR according to standard procedures (both state-of-the-art according to U.S. Pat. No. 7,052,890). Through the primers used a NdeI restriction site and six histidine codons were inserted at the 5′ end and a BgIII restriction site (TG6) and a HindIII restriction site (TG7) at the 3′ end.
(§2) The Tg6 PCR product was treated with the restriction endonucleases NdeI and BgIII. In the NdeI and BamH I restricted vector pET 3a was inserted. The Tg7 PCR product was treated with the restriction endonucleases NdeI and HindIII. and in the likewise restricted vector pET 28b was inserted.
(§3) The E. coli strain BL21 (DE3) (Novagen, Darmstadt) was transformed with the obtained plasmids. A culture of one strain each was induced with IPTG and harvested. After cell disruption under high pressure homogenisation the disrupts were centrifuged and the supernatants were purified via metal ion affinity chromatography on HiTrap chelating HP columns (GE-Helathcare). The purified proteins TG6 and TG7 were analyzed by SDS-PAGE with Coomassie staining. All procedures used for the production of TG6 and TG7 are well known to the one skilled in the art.

Another test has as its target T2, TG7 (Homo sapiens, UniProt Q96PF1).
T2 construct: His6 (N); made in house; host or cells: E. coli BL21 (DE3)
T2 sequence (Q96PF1 1-710): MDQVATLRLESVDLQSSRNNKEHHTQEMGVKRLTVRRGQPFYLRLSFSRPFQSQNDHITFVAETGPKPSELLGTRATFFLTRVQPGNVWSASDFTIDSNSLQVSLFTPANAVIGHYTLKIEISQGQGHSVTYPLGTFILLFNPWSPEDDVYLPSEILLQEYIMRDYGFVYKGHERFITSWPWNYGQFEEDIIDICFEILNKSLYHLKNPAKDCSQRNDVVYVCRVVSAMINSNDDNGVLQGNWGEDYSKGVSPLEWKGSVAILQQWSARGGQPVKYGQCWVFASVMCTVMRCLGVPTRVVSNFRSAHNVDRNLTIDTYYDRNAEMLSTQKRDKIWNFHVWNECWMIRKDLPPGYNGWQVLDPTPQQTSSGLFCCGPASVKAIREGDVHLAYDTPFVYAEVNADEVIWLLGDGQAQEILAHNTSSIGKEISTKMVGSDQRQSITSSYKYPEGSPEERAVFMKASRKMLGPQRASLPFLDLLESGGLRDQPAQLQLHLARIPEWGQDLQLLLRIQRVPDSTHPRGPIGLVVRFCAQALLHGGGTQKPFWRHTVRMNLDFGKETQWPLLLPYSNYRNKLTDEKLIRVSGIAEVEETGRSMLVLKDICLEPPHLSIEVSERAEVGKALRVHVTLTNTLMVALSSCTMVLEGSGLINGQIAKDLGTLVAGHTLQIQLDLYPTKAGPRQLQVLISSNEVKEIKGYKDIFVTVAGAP
Briefly: Transglutaminase inhibition, IC50 at TG7. Here is the method:
as §1, §2, §3

The target of the next test is T3, TG3 (Homo sapiens, UniProt Q08188).
T3 sequence (Q08188 1-693): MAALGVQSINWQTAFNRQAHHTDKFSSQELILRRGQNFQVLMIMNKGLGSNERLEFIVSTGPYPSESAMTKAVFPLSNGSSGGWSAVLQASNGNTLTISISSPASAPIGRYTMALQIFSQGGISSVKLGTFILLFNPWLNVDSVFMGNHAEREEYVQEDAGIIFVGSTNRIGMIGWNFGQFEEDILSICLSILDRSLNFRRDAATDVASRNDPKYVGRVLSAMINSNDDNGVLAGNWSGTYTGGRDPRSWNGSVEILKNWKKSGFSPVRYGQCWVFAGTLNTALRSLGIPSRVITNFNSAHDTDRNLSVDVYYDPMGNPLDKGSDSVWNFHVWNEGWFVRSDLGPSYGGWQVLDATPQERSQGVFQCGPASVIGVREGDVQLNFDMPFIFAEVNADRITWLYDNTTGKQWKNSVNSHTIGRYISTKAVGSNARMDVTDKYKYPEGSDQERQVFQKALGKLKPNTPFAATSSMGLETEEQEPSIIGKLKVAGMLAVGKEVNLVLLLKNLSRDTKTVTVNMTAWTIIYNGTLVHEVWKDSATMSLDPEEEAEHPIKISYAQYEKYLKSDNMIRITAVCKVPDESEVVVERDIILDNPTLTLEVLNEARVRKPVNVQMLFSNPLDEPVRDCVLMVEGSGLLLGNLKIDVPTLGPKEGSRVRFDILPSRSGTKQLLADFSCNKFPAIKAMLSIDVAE
Briefly: Transglutaminase inhibition, IC50 at TG3.

[1] abbreviates: Table 2, read-out: IC50 value [TG6].
Where [2] appears, read: Table 2, read-out: IC50 value [TG7].
Where [3] appears, read: Table 2, read-out: IC50 value [TG3].

Where two headings read alike, the source gives them in different places. *1 amine or outer side, *2 acyl side, *3 side chain or, on linkers, in order; H or OH if unused. Where a SMILES comes first, the peptide text is derived from it. [ ]: non-standard residue; d: D form. X3 = O=C([C@H](CC/C=C/[N+](=O)[O-])N[*:1])[*:2]; Phe(2,4-Cl2) = N[C@@H](Cc1ccc(Cl)cc1Cl)C(=O)O; X1 = CN(C)C(=O)/C=C/CC[C@H](N[*:1])C(=O)[*:2]; X4 = O=C([C@@H]1C(O)c2ccccc2CN1[*:1])[*:2]; hCit = NC(=O)NCCCC[C@H](N)C(=O)O; Aib = CC(C)(N)C(=O)O Bounds are passed on as bounds.

In general, IC50 refers to the midpoint of a concentration-inhibition curve. As for `CC[C@H](C)[C@H](NC(=O)[C@H](CCC(N)=O)NC(=O)[C@H](CC/C=C/C(=O)N(C)C)NC(=O)[C@H](Cc1ccc(Cl)cc1Cl)NC(=O)C(C)(C)NC(C)=O)C(=O)N[C@H](C(=O)O)C(C)C` [Compound 3.2.13] (Ac-[Aib][Phe(2,4-Cl2)][X1]QIV-OH), the IC50 at TG6 (setting [1]) is 4 µM; on TG7 (setting [2]), 46 µM; on TG3 (setting [3]), greater than 100 µM.

On to `CC(=O)N[C@@H](CCl)C(=O)N1CSC[C@H]1C(=O)N[C@@H](CC/C=C/C(=O)c1ccc([N+](=O)[O-])cc1)C(=O)N[C@@H](CCC(N)=O)C(=O)N[C@@H](CC1CCCCC1)C(=O)Nc1ccc(C(=O)O)cc1` [Compound 3.2.16], for which the concentration for half-maximal inhibition (IC50) was found to be 2 µM on TG6, 3.4 µM against TG7 and 48 µM at TG3.

With `CC(=O)N[C@@H](CCC(N)=O)C(=O)N[C@@H](CCC(N)=O)C(=O)N[C@@H](CC/C=C/[N+](=O)[O-])C(=O)N[C@H](C(=O)N[C@@H](CCCCNC(N)=O)C(=O)N[C@@H](CCC(N)=O)C(=O)N1Cc2ccccc2C(O)[C@H]1C(N)=O)C(C)C` (stereo partly drawn) [Compound 3.2.14] (Ac-QQ[X3]V[hCit]Q[X4]-NH2), the figures for the IC50 on TG6 (setting [1]), at TG7 (setting [2]) and on TG3 (setting [3]) were greater than 100 µM, greater than 100 µM and 2.3 µM, respectively.

These data come from patent publication US8471063B2, “Michael systems as transglutaminase inhibitors” (Zedira GmbH, priority 2006, dated 2013).
